Paper PMC2245808, “Persistence of duplicated PAC1 receptors in the teleost, Sparus auratus” (BMC Evolutionary Biology, 2007)

Key:
[1] = test system: Cos7 cell lines expressing the recombinant vector; test: Forskolin activation of transfected Cos7 cells (cAMP); type: cell-based; conditions: Forskolin 10 mM, 1 mM and 0.1 mM
Description: (§1) Ligand binding studies were performed two days after transfections, in three independent experiments. Transfected cells were incubated in duplicate with different concentrations (10^-6 to 10^-11M) of the human VIP, PACAP38 and secretin (SCT) peptides and ovine PACAP27 peptide for 30 minutes (Sigma-Aldrich, Spain). Homologous sea bream peptides are unavailable but their predicted amino acid sequences are 82%, 100%and 92% identical to human VIP, PACAP27 and PACAP38 respectively and important amino acids at N-terminus potential involved in receptor binding are totally conserved (unpublished data). […]
(§2) The quantification of cAMP produced was determined by radioimmunoassay using the TRK432 kit (GE Healthcare, UK) following the manufacturer's instructions. […] The concentration of cAMP produced (pmol/well) was determined in duplicate for each sample and calculations performed based on a linear regression curve constructed using standard concentrations of labelled (^3H) cAMP. […] Data was analyzed by comparing the potency profile of each sbPAC1 receptor in the presence of different concentrations of test peptides and by comparing the potency profile of both receptors in the presence of identical peptide concentrations. […]

[2] = test system: Hek293 cell lines expressing the recombinant vector; test: Forskolin activation of transfected Hek293 cells (cAMP); type: cell-based; conditions: Forskolin 10 mM, 1 mM and 0.1 mM
Description: as §1, §2

sbPAC1A = test: cAMP production in Cos7 cells expressing sbPAC1A (RIA); type: cell-based, sea bream (Sparus auratus); conditions: for LOGEC50 for cAMP production: 10^-6 to 10^-11M peptide, cAMP by radioimmunoassay (TRK432), mean ± SEM of three independent experiments in duplicate, log value with negative sign
Description: (§3) Specific primers for each sbPAC1 gene were designed to amplify the mature receptor sequence (Table 2) and were cloned into pcDNA3 vector (Invitrogen, UK) containing a signal peptide of CD33 and a T7-epitope tag (CD33-T7-pcDNA3, [66]). In order to facilitate cloning, restriction digestion sites for BglII and EcoRI enzymes were incorporated in the forward and reverse primers respectively. Template amplification was carried out using the thermocyle; 95°C for 2 minutes; 35 cycles of (95°C for 1 minute, 68°C for 1 minute and 70°C 2 minutes); 72°C for 10 minutes with a proof-reading Pfu DNA polymerase (Promega, Spain) in a 25 μl reaction volume containing 1 × PCR buffer (Promega, Spain), 1,5 mM MgCl2 (Promega, Spain), 0,2 mM dNTPs (Amersham), […] of each primer and 1,5 U Pfu DNA polymerase (3 U/μl)) and DNase Free water (Sigma-Aldrich, Spain). The amplified PCR products were cloned into pGEMT-easy vector (Promega, Spain), sequenced and subcloned into CD33-T7-pcDNA3 vector in frame with the T7-epitope tag. The recombinant constructs produced (CD33-T7-pcDNA3+sbPAC1A and CD33-T7-pcDNA3+sbPAC1B) were sequenced and used to transfect mammalian Cos7 and Hek293 cells lines. The CD86 (NM_175862) membrane protein of the immunoglobulin superfamily cloned in CD33-T7-pcDNA3 expression vector was used as positive control for cell transfection (de Vet et al., 2001).
(§4) Mammalian Cos7 and Hek293 cell lines were transfected using the Effectene transfection kit (Qiagen, Germany) and the success of transfection was assessed by western blot and immunofluorescence assays using antisera raised against the T7-epitope tag protein [66]. One day prior to transfection, approximately 60,000 to 70,000 Cos7 and Hek293 cells were seeded and transfections carried out using approximately 0.4 μg of recombinant construct (pcDNA3+sbPAC1A or B) and cells were grown for 2 days at 37°C. The viability of transfected cells was determined by dye exclusion using Trypan blue (0,4% solution, Sigma) and the success of transfection calculated by fluorescent confocal microscopy using DAPI (4',6-Diamidino-2-phenylindole) and FITC (Fluorescein) staining for Cos7 cells and the FACS (Fluorescence Activated Cell Sorting) method for Hek293 cells. The percentage of cell transfection was estimated to be approximately 30% in both cell lines.
Ligand binding studies were performed two days after transfections, in three independent experiments. Transfected cells were incubated in duplicate with different concentrations (10^-6 to 10^-11M) of the human VIP, PACAP38 and secretin (SCT) peptides and ovine PACAP27 peptide for 30 minutes (Sigma-Aldrich, Spain). Homologous sea bream peptides are unavailable but their predicted amino acid sequences are 82%, 100%and 92% identical to human VIP, PACAP27 and PACAP38 respectively and important amino acids at N-terminus potential involved in receptor binding are totally conserved (unpublished data). Prior to ligand-binding assays, Cos7 and Hek293 cells were washed 3 times with DMEM medium without fetal calf serum and incubated in a CO2 incubator with 1 mM of IBMX (3-Isobutyl-1-Methylxantine) for 30 minutes. Ligand-binding assays were performed by incubating the cells in fresh medium containing the peptides in the presence of 1 mM IBMX for 30 minutes at 37°C in the CO2 incubator. After incubation, cells were lysed and stored at -80°C until required. Mammalian Cos7 and Hek293 cells transfected with wild type pcDNA3 were used as negative controls which were incubated with the highest tested peptide concentration ([…]). Prior to assays the responsiveness of transfected Cos7 and Hek293 cells was tested by stimulating cAMP production using Forskolin ([…]; Sigma-Aldrich).
The quantification of cAMP produced was determined by radioimmunoassay using the TRK432 kit (GE Healthcare, UK) following the manufacturer's instructions. Cos7 and Hek293 cells were lysed by sonication, centrifuged and the supernatant heat denatured for 10 minutes at 100°C. […]

sbPAC1B = test: cAMP production in Cos7 cells expressing sbPAC1B (RIA); type: cell-based, sea bream (Sparus auratus); conditions: for LOGEC50 for maximal cAMP production: 10^-6 to 10^-11M peptide, cAMP by radioimmunoassay (TRK432), mean ± SEM of three independent experiments in duplicate, log value with negative sign
Description: as §3, §4
Ligand binding studies were performed two days after transfections, in three independent experiments. Transfected cells were incubated in duplicate with different concentrations (10^-6 to 10^-11M) of the human VIP, PACAP38 and secretin (SCT) peptides and ovine PACAP27 peptide for 30 minutes (Sigma-Aldrich, Spain). […]
The quantification of cAMP produced was determined by radioimmunoassay using the TRK432 kit (GE Healthcare, UK) following the manufacturer's instructions. […]

pituitary cells = conditions: compared to GHRH and GnRH for PACAP38; ref [46],[51],[52]; cited from earlier work
From the text: (§5) An intriguing aspect about the sbPAC1 genes is their divergent tissue distribution and this may be the basis of their specific physiological functions and persistence in the genome. Understanding the biological function of receptors is complex as it is not only the availability and concentration of receptors but also of ligands and accessory factors at a given site which will determine receptor preference/activity and ultimately biological function.

[3] = test system: endogenous receptors in Hek293; test: Negative control: Hek293 cells transfected with pcDNA3 without insert; type: cell-based; conditions: maximum concentration of test peptide (10^-6 M)
From the text: The sbPAC1A and sbPAC1B were successfully expressed in Cos7 and Hek293 cell lines as confirmed by immunofluorescence and Western blot analysis. Cos7 cell extracts subject to Western blot contained a specific immunoreactive fusion protein of approximately 52 kDa in transfected cells, which corresponds to the estimated molecular weight in silico of the fusion proteins, (T7PAC1A is 52.75 kDa and T7PAC1B is 52.32 kDa). […] For this reason only the results obtained with transfected Cos7 cells are presented.
Ligand binding studies were performed two days after transfections, in three independent experiments. […]
as §2

PAC1 = conditions: human PAC1; ref [18],[19]; cited from earlier work
From the text: In vertebrates, activation of PAC1/VPAC receptors occurs via three intracellular transduction mechanisms. These involve either cyclic AMP (cAMP) production, IP turnover via PLC or/and calcium mobilization as a consequence of the activation of a G-protein complex. In mammals, five PAC1 isoforms, which result from the insertion of one or two, 28 (hip or hop1 variant) or ...

[4] = test system: gastric and pancreatic secretion; conditions: cod; ref [55],[56]; cited from earlier work
From the text: as §5

intestine = conditions: tilapia; ref [57]; cited from earlier work
From the text: as §5

[5] = transfected Cos7 cells, 30 minutes, 37°C, 1 mM IBMX

C=C[C@@]1(C)CC(=O)[C@]2(O)[C@@]3(C)[C@@H](O)CCC(C)(C)[C@@H]3[C@H](O)[C@H](OC(C)=O)[C@@]2(C)O1 [Forskolin]
cAMP production with Forskolin [1]: maximal cAMP production
cAMP production with Forskolin [2]: maximal cAMP production

Pituitary Adenylate Cyclase-Activating Polypeptide [PACAP27]
stimulation of sbPAC1A compared to sbPAC1B (LOGEC50 values for maximal cAMP production) (sbPAC1A; sbPAC1A vs sbPAC1B, P > 0.05): equally stimulated

Pituitary Adenylate Cyclase-Activating Polypeptide [PACAP38]
LOGEC50 for cAMP production (sbPAC1A; [5]): -8.54 ± 0.18 M
LOGEC50 for maximal cAMP production (sbPAC1B; [5]): -8.92 ± 0.24 M
effect on fish GH secretion by pituitary cells (pituitary cells): more potent stimulatory effect on fish GH secretion by pituitary cells when compared to GHRH and GnRH

Pituitary Adenylate Cyclase-Activating Polypeptide [PACAP]
responsiveness of Hek293 cells transfected with pcDNA3 without insert [3]: responsive
binding preference of PAC1 (PAC1): preferentially binds PACAP

Vasoactive Intestinal Peptide [VIP]
potency for sbPAC1A compared to sbPAC1B (sbPAC1A; LOGEC50 comparison of sbPAC1A vs sbPAC1B, P < 0.05): significantly more potent for sbPAC1A
LOGEC50 for cAMP production (sbPAC1A; [5]): -7.23 ± 0.20 M
stimulation of cAMP production compared with PACAP peptides (sbPAC1A; two way Anova, Holm-Sidak, transfected Cos7 cells, P < 0.05): significantly lower (P < 0.05) than for PACAP peptides
LOGEC50 for maximal cAMP production (sbPAC1B; [5]): -6.57 ± 0.14 M
stimulation of cAMP compared with PACAP27 and PACAP38 (sbPAC1B; two way Anova, Holm-Sidak, transfected Cos7 cells, P < 0.001): significantly lower than PACAP27 and PACAP38 (P < 0.001)
responsiveness of Hek293 cells transfected with pcDNA3 without insert [3]: responsive
effect on gastric and pancreatic secretion [4]: stimulates gastric and pancreatic secretion
effect on ion and water absorption by the intestine (intestine): involved in ion and water absorption by the intestine
effect on fish GH secretion by pituitary cells (pituitary cells): little or no effect on GH release

secretin [SCT]
increase above the basal concentration of cAMP production (sbPAC1A; human SCT, Cos7 cells transformed with sbPAC1A, 30 minutes, 37°C, 1 mM IBMX, data not shown): negligible increase
increase above the basal concentration of cAMP production (sbPAC1B; human SCT, Cos7 cells transformed with sbPAC1B, 30 minutes, 37°C, 1 mM IBMX, data not shown): negligible increase
